Values belong to the substance of their own block, whether it stands above or below them.
Tests used:
[1] = Excretion in rats (Hafnium in urine, faeces, organs and carcass by ICP-MS); format: in vivo; conditions: i.v. 150 mg Hf/kg
Procedure: An aqueous solution of [Hf3(H−3tacitp)2](in 10 mM trometamol buffer, pH 7.4, 60 mg Hf/mL) was injected in the tail vein of 3 rats (ca. […]) at a dose of 150 mg Hf/kg. Urine samples were collected at the following time intervals: 0-0.5, 0.5-1, 1-3, 3-6, 6-24 h and then daily until day 7. Faeces was collected daily until day 7. On day 7 the animals were sacrificed and the following organs were excised: liver, kidneys, spleen, heart, lung, brain, lymph nodes, muscle, gut, duodenum, skin, bone marrow, bone. The remaining body was freeze dried and ground to obtain a fine powder.
The Hafnium concentration in all specimen was determined after digestion in oxidizing solution (nitric acid and hydrogen peroxide) at elevated pressure and temperature. The measurement of Hafnium was performed by ICP-MS.

[2] = Pharmacokinetics in rats (Hafnium blood concentration by ICP-MS, 3-compartment model); format: in vivo; conditions: i.v. 150 mg Hf/kg
Procedure: An aqueous solution of [Hf3(H−3tacitp)2](in 10 mM trometamol buffer, pH 7.4, 60 mg Hf/mL) was injected in the tail vein of 3 rats (ca. 250 g) at a dose of 150 mg Hf/kg. Blood samples were collected via a catheter from the arteria carotis at the following times: 1, 2, 5, 10, 15, 30, 60, 90, 120, 240, 360 and 1440 min after injection.
The Hafnium concentration in all blood samples was determined after digestion in oxidizing solution (nitric acid and hydrogen peroxide) at elevated pressure and temperature. The measurement of Hafnium was performed by ICP-MS.
The pharmacokinetic parameters were obtained for each animal by fitting the blood concentrations to a 3-compartment model, using the software WinNonlin.

[3] = Stability of bis azainositol heavy metal complexes under heat sterilization (121° C., 45 min, pH 7.4; HPLC and ICP-OES); conditions: aqueous buffered solution pH 7.4, 5 mmol/L, 121° C. for 45 min in steam autoclave; absolute stability = HPLC peak area ratio x metal concentration ratio after/before
Procedure: The stability of bis azainositol heavy metal complexes was determined in aqueous, buffered solution at pH 7.4. The solution containing 5 mmol/L of the compound in a tightly sealed vessel was heated to 121° C. for 45 min in a steam autoclave. The metal concentration of the solution was determined by ICP-OES before and after heat treatment. The integrity of the compound was determined by HPLC analysis before and after heat treatment. Absolute stability was calculated as the ratio of the peak area of the compound after and before the heat treatment multiplied with the ratio of the metal concentration of the solution after and before heat treatment.
Column: Reversed phase C18. […] Solvent B: methanol, HPLC grade Gradient: gradients starting from 100% A and 0% B were used. Flow: 1 mL/min Detector D1: element specific detection by ICP-OES running at the most sensitive emission wavelength of the respective complexed metal. Detector D2: element specific detection by ICP-MS running at the most abundant isotope of the respective complexed metal.

[4] = system: Han-Wistar rat; experiment: Preclinical X-ray imaging: contrast enhanced CT of an anaesthetized rat; format: in vivo; conditions: i.v. tail vein, 200 mg Lu per kg body weight, 149 mg Lu/mL, 120 kV
Procedure: The study was performed on a clinical CT unit (Sensation 64, Siemens Medical Solutions, Erlangen, Germany) with an anaesthetized rat. The compound described in example 2 was used as X-ray diagnostic agents in order to perform contrast enhanced CT imaging.
The study was performed on a healthy Han-Wistar rat. Initial anaesthesia was induced by inhalation of 4% Isoflurane (Baxter Deutschland GmbH, Unterschleiβheim, Germany) and maintained by 1.5% Isoflurane. The X-ray diagnostic agent (Example 2) at a concentration of 149 mg Lu/mL was administered intravenously via the tail vein by the help of a dedicated injection pump (flow rate=0.6 mL/s). A dosage of 200 mg Lu per kg body weight was used. In order to simulate a clinical condition the rat was placed within a tissue equivalent phantom (QRM, Möhrendorf, Germany) that mimics the human abdomen in respect of X-ray absorption.
An X-ray projection image (topogram) was acquired to adjust the measurement range to the thoracal region of the animal. The subsequent contrast enhanced measurement was done with following CT parameter settings: X-ray tube voltage=120 kV, mAs-product=160 mAs, tube rotational time=0.5 s, slice thickness=2.4 mm, measurement time=20 s. […]
The signal-time course in the left heart chamber was quantified by a region of interest analysis. […]

[5] = system: mice; experiment: Tolerability in mice (behaviour and survival after 7 d); format: in vivo; conditions: i.v. tail vein
Procedure: An aqueous solution of Na3[Lu3(H−3tacita)2](in 10 mM trometamol buffer, pH 7.4, 148 mg Lu/mL) was injected in the tail vein of 1-3 mice for each dose group (22-25 g) at increasing doses ranging from 1000 to 3000 mg Lu/kg. The behaviour of the animals and the survival after 7 d was recorded.

Substance: Bis{μ3-[(all-cis)-2-{[(carboxy-1κO)methyl]amino-1κN}-4-{[(carboxy-2κO)methyl]amino-2κN}-6-{[(carboxy-3κO)methyl]amino-3κN}cyclohexane-1,3,5-triolate-1κ^2O^1,O^3:2κ^2O^3,O^5:3κ^2O^1,O^5]}trihafnium(IV) [Example 1]
Stability [3]: 102%

Substance: Trisodium bis{μ3-[(all-cis)-2-{[(carboxy-1κO)methyl]amino-1κN}-4-{[(carboxy-2κO)methyl]amino-2κN}-6-{[(carboxy-3κO)methyl]amino-3κN}cyclohexane-1,3,5-triolate-1κ^2O^1,O^3:2κ^2O^3,O^5:3κ^2O^1,O^5]}trilutetate(III) [Example 2]
CT signal change in blood vessels and heart chambers during passage of the diagnostic agent [4]: strong signal increase
Stability [3]: 100%
survival after 7 d ([5]; 1000 mg Lu/kg): all animals survived
survival after 7 d ([5]; 2000 mg Lu/kg): all animals survived
survival after 7 d ([5]; 2500 mg Lu/kg): all animals survived
survival after 7 d ([5]; 3000 mg Lu/kg): 2 of 3 animals died

Continued, in another order:

injected Hafnium excreted via the urine ([1]; after 1 d, cumulative): 96%
injected Hafnium found in all organs and the carcass together ([1]; after 7 d): 0.33%
injected Hafnium excreted via the urine ([1]; after 7 d, cumulative): 97%
injected Hafnium found in faeces ([1]; after 7 d, cumulative): About 1.3%
total plasma clearance [2]: 10 ± 0.6 mL/min/kg
blood half live ([2]; elimination phase): 22.6 ± 3.1 min
volume of distribution ([2]; elimination phase): 0.31±0.01 I/kg
Substance: Bis{μ3-[(all-cis)-2-{[(carboxy-1κO)ethyl]amino-1κN}-4-{[(carboxy-2κO)ethyl]amino-2κN}-6-{[(carboxy-3κO)ethyl]amino-3κN}cyclohexane-1,3,5-triolate-1κ^2O^1,O^3:2κ^2O^3,O^5:3κ^2O^1,O^5]}trihafnium(IV) [Example 13]
Hafnium content of organs other than kidney ([1]; after 7 d): ≤ 0.01 % of the injected dose/g organ (wet weight)

Stability [3]: 96%
Substance: Trisodium bis{μ3-(all-cis)-2-{[(carboxy-1κO)ethyl](methyl)-amino-1κN}-4-{[(carboxy-2κO)ethyl](methyl)amino-2κN}-6-{[(carboxy-3κO)ethyl]-(methyl)amino-3κN}cyclohexane-1,3,5-triolate-1κ^2O^1,O^3:2κ^2O^3,O^5:3κ^2O^1,O^5]}triytterbate(II) [Example 23]

Stability [3]: 90%
Substance: Trisodium bis{μ3-[(all-cis)-2-{[(carboxy-1κO)ethyl](methyl)-amino-1κN}-4-{[(carboxy-2κO)ethyl](methyl)amino-2κN}-6-{[(carboxy-3κO)ethyl]-(methyl)amino-3κN}cyclohexane-1,3,5-triolate-1κ^2O^1,O^3:2κ^2O^3,O^5:3κ^2O^1,O^5]}trilutetate(III) [Example 19]

— patent US20150132229A1, “BIS AZAINOSITOL HEAVY METAL COMPLEXES FOR X-RAY IMAGING” (BAYER PHARMA AKTIENGESELLSCHAFT, priority 2012, published 2015)
